Reference: PubChem BioAssay AID258 (DTP/NCI, 2004)
Values joined by “and” are separate entries in the source; they are usually repeats but may differ in a detail not shown here. Equal entries are not always repeated. Inconclusive results and toxic doses are left out.

System: CD2F1 mice, L1210 leukemia sc, survival T/C
Assay: NCI In Vivo Anticancer Drug Screen. Data for tumor model L1210 Leukemia (subcutaneous) in CD2F1 (CDF1) mice
Conditions: endpoint: median survival time, higher = longer survival
Method in brief: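 Read-out: survival or tumor size. Value = treated (T) / vehicle control (C). Transplantable tumor in mice.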

`S=P(N1CC1)(N1CC1)N1CC1` was tested, and the T/C (dose: 1.5 mg/kg/injection, schedule: Q01DX009 (ip), vehicle: water) was 107 % of control, the T/C (dose: 1.5 mg/kg/injection, schedule: Q01DX009 (sc), vehicle: water) was 105 % of control and the T/C (dose: 3.0 mg/kg/injection, schedule: Q01DX009 (ip), vehicle: water) was 105 % of control. The T/C (dose: 3.0 mg/kg/injection, schedule: Q01DX009 (sc), vehicle: saline) was 121 % of control, the T/C (dose: 3.0 mg/kg/injection, schedule: Q01DX009 (sc), vehicle: water) was 101 % of control and the T/C (dose: 6.0 mg/kg/injection, schedule: Q01DX009 (ip), vehicle: water) was 121 % of control. The T/C (dose: 6.0 mg/kg/injection, schedule: Q01DX009 (sc), vehicle: saline) was 166 % of control and 176 % of control, the T/C (dose: 6.0 mg/kg/injection, schedule: Q01DX009 (sc), vehicle: water) was 122 % of control and the T/C (dose: 24.0 mg/kg/injection, schedule: Q01DX009 (ip), vehicle: water) was 194 % of control. The T/C (dose: 24.0 mg/kg/injection, schedule: Q01DX009 (sc), vehicle: water) was 157 % of control, the T/C (dose: 12.0 micrograms/kg/injection, schedule: Q01DX009 (ip), vehicle: saline) was 100 % of control and the T/C (dose: 12.0 micrograms/kg/injection, schedule: Q01DX009 (sc), vehicle: saline) was 107 % of control. The T/C (dose: 25.0 micrograms/kg/injection, schedule: Q01DX009 (ip), vehicle: saline) was 104 % of control, the T/C (dose: 25.0 micrograms/kg/injection, schedule: Q01DX009 (sc), vehicle: saline) was 98 % of control and the T/C (dose: 50.0 micrograms/kg/injection, schedule: Q01DX009 (ip), vehicle: saline) was 104 % of control. The T/C (dose: 50.0 micrograms/kg/injection, schedule: Q01DX009 (sc), vehicle: saline) was 100 % of control, the T/C (dose: 100.0 micrograms/kg/injection, schedule: Q01DX009 (ip), vehicle: saline) was 100 % of control and the T/C (dose: 100.0 micrograms/kg/injection, schedule: Q01DX009 (sc), vehicle: saline) was 98 % of control. The T/C (dose: 200.0 micrograms/kg/injection, schedule: Q01DX009 (ip), vehicle: saline) was 96 % of control, the T/C (dose: 200.0 micrograms/kg/injection, schedule: Q01DX009 (sc), vehicle: saline) was 102 % of control and the T/C (dose: 400.0 micrograms/kg/injection, schedule: Q01DX009 (ip), vehicle: saline) was 102 % of control. The T/C (dose: 400.0 micrograms/kg/injection, schedule: Q01DX009 (sc), vehicle: saline) was 102 % of control.
For `O=S1(=O)CS(=O)(=O)OCCO1`, the T/C (dose: 25.0 mg/kg/injection, schedule: Q01DX009 (ip), vehicle: Klucel (hydroxypropylcellulose) (HPC)) was 216 % of control and the T/C (dose: 50.0 mg/kg/injection, schedule: Q01DX009 (ip), vehicle: Klucel (hydroxypropylcellulose) (HPC)) was 175 % of control.
`Clc1ccc(CNc2ncnc3[nH]ncc23)cc1Cl` was tested, and the T/C (dose: 8.4 mg/kg/injection, schedule: Q01DX Z (sc), vehicle: methylcellulose (MC)) was 95 % of control, the T/C (dose: 14.0 mg/kg/injection, schedule: Q01DX Z (sc), vehicle: methylcellulose (MC)) was 95 % of control and the T/C (dose: 23.0 mg/kg/injection, schedule: Q01DX Z (sc), vehicle: methylcellulose (MC)) was 95 % of control. The T/C (dose: 39.0 mg/kg/injection, schedule: Q01DX Z (sc), vehicle: methylcellulose (MC)) was 100 % of control, the T/C (dose: 65.0 mg/kg/injection, schedule: Q01DX Z (sc), vehicle: methylcellulose (MC)) was 104 % of control and the T/C (dose: 108.0 mg/kg/injection, schedule: Q01DX Z (sc), vehicle: methylcellulose (MC)) was 114 % of control. For the same compound, the T/C (dose: 180.0 mg/kg/injection, schedule: Q01DX Z (sc), vehicle: methylcellulose (MC)) was 104 % of control.
For `O=NN(CCCl)C(=O)NC1CC2CCC1C2` (configuration not stated), the T/C (dose: 3.75 mg/kg/injection, schedule: Q01DX Z (sc), vehicle: carboxymethylcellulose (CMC)) was 94 % of control, the T/C (dose: 7.5 mg/kg/injection, schedule: Q01DX Z (sc), vehicle: carboxymethylcellulose (CMC)) was 94 % of control and the T/C (dose: 15.0 mg/kg/injection, schedule: Q01DX Z (sc), vehicle: carboxymethylcellulose (CMC)) was 117 % of control. For the same compound, the T/C (dose: 30.0 mg/kg/injection, schedule: Q01DX Z (sc), vehicle: carboxymethylcellulose (CMC)) was 288 % of control and the T/C (dose: 60.0 mg/kg/injection, schedule: Q01DX Z (sc), vehicle: carboxymethylcellulose (CMC)) was 200 % of control.
In the case of `Nc1nc(=S)c2[nH]cnc2[nH]1`, the T/C (dose: 2.16 mg/kg/injection, schedule: Q01DX Z (sc), vehicle: other) is reported as 177 % of control, the T/C (dose: 3.6 mg/kg/injection, schedule: Q01DX Z (sc), vehicle: other) is reported as 177 % of control and the T/C (dose: 6.0 mg/kg/injection, schedule: Q01DX Z (sc), vehicle: other) is reported as 177 % of control. For the same compound, the T/C (dose: 10.1 mg/kg/injection, schedule: Q01DX Z (sc), vehicle: other) was 166 % of control and the T/C (dose: 16.9 mg/kg/injection, schedule: Q01DX Z (sc), vehicle: other) was 161 % of control.
With `CNNCc1ccc(C(=O)NC(N)=O)cc1` the T/C (dose: 50.0 mg/kg/injection, schedule: Q01DX Z (sc), vehicle: saline) was 94 % of control, the T/C (dose: 100.0 mg/kg/injection, schedule: Q01DX Z (sc), vehicle: saline) was 105 % of control and the T/C (dose: 200.0 mg/kg/injection, schedule: Q01DX Z (sc), vehicle: saline) was 105 % of control. The T/C (dose: 400.0 mg/kg/injection, schedule: Q01DX Z (sc), vehicle: saline) was 94 % of control.
With `CN(C)CCN1C(=O)c2cccc3cc(N)cc(c23)C1=O` the T/C (dose: 5.0 mg/kg/injection, schedule: Q01DX009 (ip), vehicle: acid diluted with saline) was 102 % of control and 105 % of control and 118 % of control, the T/C (dose: 7.0 mg/kg/injection, schedule: Q01DX009 (ip), vehicle: acid diluted with saline) was 103 % of control and 115 % of control and 121 % of control and the T/C (dose: 10.0 mg/kg/injection, schedule: Q01DX009 (ip), vehicle: acid diluted with saline) was 112 % of control. For the same compound, the T/C (dose: 16.0 mg/kg/injection, schedule: Q01DX009 (ip), vehicle: acid diluted with saline) was 150 % of control and 173 % of control and the T/C (dose: 24.0 mg/kg/injection, schedule: Q01DX009 (ip), vehicle: acid diluted with saline) was 116 % of control.
In the case of `NCCCN=c1ccc2c3c1c(O)c1c(O)ccc(=O)c1c3[nH]n2CCNCCO`, the T/C (dose: 0.8 mg/kg/injection, schedule: Q03HX024 (ip), vehicle: saline) is reported as 118 % of control, the T/C (dose: 2.2 mg/kg/injection, schedule: Q03HX024 (ip), vehicle: saline) is reported as 161 % of control and the T/C (dose: 2.34 mg/kg/injection, schedule: Q03HX008 (ip), vehicle: saline) is reported as 124 % of control. For the same compound, the T/C (dose: 3.46 mg/kg/injection, schedule: Q01DX009 (ip), vehicle: water) was 114 % of control, the T/C (dose: 3.6 mg/kg/injection, schedule: Q03HX024 (ip), vehicle: saline) was 212 % of control and the T/C (dose: 3.7 mg/kg/injection, schedule: Q01DX005 (ip), vehicle: saline) was 121 % of control. For the same compound, the T/C (dose: 3.7 mg/kg/injection, schedule: Q04DX003 (ip), vehicle: saline) was 115 % of control, the T/C (dose: 5.7 mg/kg/injection, schedule: Q01DX009 (ip), vehicle: water) was 121 % of control and the T/C (dose: 6.2 mg/kg/injection, schedule: Q04DX003 (ip), vehicle: saline) was 110 % of control. For the same compound, the T/C (dose: 6.4 mg/kg/injection, schedule: Q03HX008 (ip), vehicle: saline) was 175 % of control, the T/C (dose: 9.6 mg/kg/injection, schedule: Q01DX009 (ip), vehicle: saline) was 207 % of control and the T/C (dose: 10.4 mg/kg/injection, schedule: Q01DX005 (ip), vehicle: saline) was 182 % of control. For the same compound, the T/C (dose: 10.4 mg/kg/injection, schedule: Q03HX008 (ip), vehicle: saline) was 86 % of control, the T/C (dose: 11.2 mg/kg/injection, schedule: Q01DX001 (ip), vehicle: saline) was 120 % of control and the T/C (dose: 16.0 mg/kg/injection, schedule: Q01DX009 (ip), vehicle: saline) was 121 % of control. The T/C (dose: 16.0 mg/kg/injection, schedule: Q01DX009 (ip), vehicle: water) was 208 % of control, the T/C (dose: 17.3 mg/kg/injection, schedule: Q01DX005 (ip), vehicle: saline) was 215 % of control and the T/C (dose: 17.3 mg/kg/injection, schedule: Q04DX003 (ip), vehicle: saline) was 153 % of control. The T/C (dose: 18.7 mg/kg/injection, schedule: Q01DX001 (ip), vehicle: saline) was 119 % of control, the T/C (dose: 26.7 mg/kg/injection, schedule: Q01DX009 (ip), vehicle: saline) was 95 % of control and the T/C (dose: 26.7 mg/kg/injection, schedule: Q01DX009 (ip), vehicle: water) was 96 % of control. The T/C (dose: 28.8 mg/kg/injection, schedule: Q01DX005 (ip), vehicle: saline) was 107 % of control, the T/C (dose: 28.8 mg/kg/injection, schedule: Q04DX003 (ip), vehicle: saline) was 182 % of control and the T/C (dose: 48.0 mg/kg/injection, schedule: Q04DX003 (ip), vehicle: saline) was 268 % of control. For the same compound, the T/C (dose: 51.3 mg/kg/injection, schedule: Q01DX001 (ip), vehicle: saline) was 153 % of control, the T/C (dose: 80.0 mg/kg/injection, schedule: Q04DX003 (ip), vehicle: saline) was 118 % of control and the T/C (dose: 86.4 mg/kg/injection, schedule: Q01DX001 (ip), vehicle: saline) was 225 % of control.
